Counter-ions that a name gives are not always drawn.
Assays:
Format in all cases: biochemical
PDE4D3 = PDE4D3 (Homo sapiens (Human), UniProt Q08499); assay: PDE4D3 inhibition (selectivity testing)
Description: The compounds have also been tested for their activities on PDEs1-9 and PDE11.

PDE10A [1] = assay: Phosphodiesterase assay (TR-FRET, LANCE cAMP kit); settings: PDE10A (BPS Bioscience) 200 pg/well, biotin-cAMP substrate, 60 min at room temperature
Experimental: (§1) The PDE assay is based on the homogenous time-resolved fluorescence resonance energy transfer (TR-FRET) technology (LANCE® from Perkin Elmer). […] When there is PDE activity, resulting in the degradation of the cyclic nucleotide, the complex is not formed and a decrease in signal is observed.
(§2) The phosphodiesterase assay was developed using the LANCE® cAMP kit (PerkinElmer). The assay buffer contained HBSS with 5 mM HEPES, 0.1% BSA, and 1.5 mM MgCl2, pH 7.4. PDE10A (BPS Bioscience) was used at 200 pg/well (with a specific activity of 3200 pmole/min/μg with assay conditions: 10 mM Tris-HCl, pH7.4, 10 mM MgCl2, 1 mM MnCl2, 200 μM cAMP, 2.5 kU 5′ nucleotidase, 37° C., 20 min). […] Chemical compounds were dissolved in DMSO (final concentration 2% (v/v)).
(§3) In a 384-well plate, 2 μL inhibitor and 3 μL PDE were added to the well, followed by the addition of 5 μl substrate biotinylated cAMP (1:5). After 60 min incubation at room temperature, 10 μL of assay detection mixture was added to the assay plate. After 1 h at room temperature, the signal was measured on EnVision™ (Perkin Elmer).

PDE10A [2] = target: PDE10A (Homo sapiens, UniProt Q9Y233); assay: Phosphodiesterase assay (TR-FRET, LANCE cAMP kit); settings: PDE10A (BPS Bioscience) 200 pg/well, biotin-cAMP substrate, 60 min at room temperature
Sequence of PDE10A (Homo sapiens, UniProt Q9Y233) (Q9Y233 whole entry, looked up): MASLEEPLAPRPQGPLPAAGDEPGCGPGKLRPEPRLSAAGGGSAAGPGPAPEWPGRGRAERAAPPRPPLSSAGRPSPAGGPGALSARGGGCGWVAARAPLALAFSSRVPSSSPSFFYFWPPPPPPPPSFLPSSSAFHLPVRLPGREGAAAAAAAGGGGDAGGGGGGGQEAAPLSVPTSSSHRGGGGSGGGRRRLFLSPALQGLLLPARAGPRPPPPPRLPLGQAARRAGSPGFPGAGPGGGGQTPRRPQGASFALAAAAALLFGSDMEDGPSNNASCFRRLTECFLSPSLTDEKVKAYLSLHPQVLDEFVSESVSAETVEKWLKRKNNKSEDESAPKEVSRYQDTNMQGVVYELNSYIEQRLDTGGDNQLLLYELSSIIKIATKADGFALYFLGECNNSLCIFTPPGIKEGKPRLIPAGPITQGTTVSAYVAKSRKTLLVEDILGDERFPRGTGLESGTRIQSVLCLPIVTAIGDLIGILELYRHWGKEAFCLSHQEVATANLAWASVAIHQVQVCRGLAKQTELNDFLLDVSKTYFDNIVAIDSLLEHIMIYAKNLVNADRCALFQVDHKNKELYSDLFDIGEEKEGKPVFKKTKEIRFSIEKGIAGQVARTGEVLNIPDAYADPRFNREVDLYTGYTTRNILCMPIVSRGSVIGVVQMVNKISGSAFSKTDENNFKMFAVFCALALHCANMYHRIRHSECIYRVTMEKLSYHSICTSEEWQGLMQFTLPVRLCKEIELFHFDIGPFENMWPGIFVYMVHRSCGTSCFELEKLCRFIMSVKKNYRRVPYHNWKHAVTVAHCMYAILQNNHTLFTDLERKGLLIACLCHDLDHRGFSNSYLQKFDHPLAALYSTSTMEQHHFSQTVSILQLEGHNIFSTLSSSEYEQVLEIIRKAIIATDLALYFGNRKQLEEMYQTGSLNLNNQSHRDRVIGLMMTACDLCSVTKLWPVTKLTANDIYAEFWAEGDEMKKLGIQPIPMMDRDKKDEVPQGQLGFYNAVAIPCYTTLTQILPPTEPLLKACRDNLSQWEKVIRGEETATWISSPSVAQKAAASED
Experimental: as §1, §2, §3

Sequence of PDE4D3 (Q08499 other isoform, or with tags, fused parts or gaps): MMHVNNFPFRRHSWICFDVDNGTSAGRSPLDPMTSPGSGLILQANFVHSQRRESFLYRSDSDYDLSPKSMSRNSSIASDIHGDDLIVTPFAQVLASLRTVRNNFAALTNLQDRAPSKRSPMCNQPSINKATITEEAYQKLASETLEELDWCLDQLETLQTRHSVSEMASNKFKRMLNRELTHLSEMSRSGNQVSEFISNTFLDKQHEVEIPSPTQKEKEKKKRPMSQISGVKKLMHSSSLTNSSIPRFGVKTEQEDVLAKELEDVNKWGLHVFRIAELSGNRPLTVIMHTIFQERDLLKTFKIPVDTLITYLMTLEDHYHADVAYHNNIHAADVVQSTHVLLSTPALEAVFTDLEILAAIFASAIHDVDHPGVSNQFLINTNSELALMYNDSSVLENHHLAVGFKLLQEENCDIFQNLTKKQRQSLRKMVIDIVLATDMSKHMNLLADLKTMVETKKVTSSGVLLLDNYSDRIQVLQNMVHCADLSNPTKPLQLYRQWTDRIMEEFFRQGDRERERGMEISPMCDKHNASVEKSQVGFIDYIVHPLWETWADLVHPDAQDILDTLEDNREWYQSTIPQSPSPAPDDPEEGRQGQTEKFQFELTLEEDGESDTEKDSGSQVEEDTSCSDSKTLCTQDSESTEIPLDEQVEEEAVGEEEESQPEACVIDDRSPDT

CCc1nc(O)c(Cc2ccc3oc4ccccc4c3c2)c2cc(OC)c(OC)cc12 [Compound 6, 4-(Dibenzo[b,d]furan-2-ylmethyl)-1-ethyl-6,7-dimethoxyisoquinolin-3-ol hydrochloride]
IC50 (PDE4D3): 0.9 nM | IC50 (PDE10A [1]): 0.12 nM

COc1cc2c(C)nc(O)c(Cc3ccnc4ccccc34)c2cc1OC [Compound 25, 6,7-Dimethoxy-1-methyl-4-(quinolin-4-ylmethyl)isoquinolin-3-ol dihydrochloride]
IC50 (PDE10A [2]): 265 nM

COc1ccc2cc(Cc3c(O)nc(C)c4cc(OC)c(OC)cc34)cnc2c1 [Compound 29, 6,7-Dimethoxy-4-((7-methoxyquinolin-3-yl)methyl)-1-methylisoquinolin-3-ol dihydrochloride]
IC50 (PDE10A [2]): 29 nM

CCOc1ccc2cc(Cc3c(O)nc(C)c4cc(OC)c(OC)cc34)cnc2c1 [Compound 30, 4-((7-ethoxyquinolin-3-yl)methyl)-6,7-dimethoxy-1-methylisoquinolin-3-ol dihydrochloride]
IC50 (PDE10A [2]): 21 nM

CCc1nc(O)c(Cc2cnc3cc(OC)ccc3c2)c2cc(OC)c(OC)cc12 [Compound 31, 1-ethyl-6,7-dimethoxy-4-((7-methoxyquinolin-3-yl)methyl)isoquinolin-3-ol dihydrochloride]
IC50 (PDE4D3): 82 nM | IC50 (PDE10A [2]): 13 nM

CCCc1nc(O)c(Cc2cc3cc(C)ccc3nc2NCC)c2cc(OC)c(OC)cc12 [Compound 35, 4-((2-(Ethylamino)-6-methylquinolin-3-yl)methyl)-6,7-dimethoxy-1-propylisoquinolin-3-ol dihydrochloride]
IC50 (PDE10A [2]): 1.5 nM

CCCc1nc(O)c(Cc2cc3cc(C)ccc3nc2N(C)C)c2cc(OC)c(OC)cc12 [Compound 36, 4-((2-(Dimethylamino)-6-methylquinolin-3-yl)methyl)-6,7-dimethoxy-1-propylisoquinolin-3-ol dihydrochloride]
IC50 (PDE10A [2]): 698 nM

CCCNc1nc2ccc(OC)cc2cc1Cc1c(O)nc(C)c2cc(OC)c(OC)cc12 [Compound 38, 6,7-dimethoxy-4-((6-methoxy-2-(propylamino)quinolin-3-yl)methyl)-1-methylisoquinolin-3-ol dihydrochloride]
IC50 (PDE10A [2]): 2.7 nM

CCc1nc(O)c(Cc2cc3cc(OC)ccc3nc2NC(C)C)c2cc(OC)c(OC)cc12 [Compound 43, 1-Ethyl-4-((2-(isopropylamino)-6-methoxyquinolin-3-yl)methyl)-6,7-dimethoxyisoquinolin-3-ol dihydrochloride]
IC50 (PDE10A [2]): 3.5 nM

CCc1nc(O)c(Cc2cc3cc(OC)ccc3nc2NCC(F)(F)F)c2cc(OC)c(OC)cc12 [Compound 45, 1-ethyl-6,7-dimethoxy-4-((6-methoxy-2-(2,2,2-trifluoroethylamino)quinolin-3-yl)methyl)isoquinolin-3-ol dihydrochloride]
IC50 (PDE10A [2]): 30 nM

CCNc1nc2ccc(OC)cc2cc1Cc1c(O)nc(C(C)C)c2cc(OC)c(OC)cc12 [Compound 47, 4-((2-(ethylamino)-6-methoxyquinolin-3-yl)methyl)-1-isopropyl-6,7-dimethoxyisoquinolin-3-ol dihydrochloride]
IC50 (PDE10A [2]): 11 nM

CCCc1nc(O)c(Cc2cc3cc(OCC)ccc3nc2NCC)c2cc(OC)c(OC)cc12 [Compound 49, 4-((6-ethoxy-2-(ethylamino)quinolin-3-yl)methyl)-6,7-dimethoxy-1-propylisoquinolin-3-ol dihydrochloride]
IC50 (PDE10A [2]): 4.6 nM

CCCc1nc(O)c(Cc2cc3cc(OC)ccc3nc2NCC)c2cc(OC)c(OC)cc12 [Compound 50, 4-((2-(ethylamino)-6-methoxyquinolin-3-yl)methyl)-6,7-dimethoxy-1-propylisoquinolin-3-ol dihydrochloride]
IC50 (PDE10A [2]): 0.28 nM

COc1ccc2nc(NCC(F)(F)F)c(Cc3c(O)nc(C(C)C)c4cc(OC)c(OC)cc34)cc2c1 [Compound 51, 1-isopropyl-6,7-dimethoxy-4-((6-methoxy-2-(2,2,2-trifluoroethylamino)quinolin-3-yl)methyl)isoquinolin-3-ol dihydrochloride]
IC50 (PDE4D3): 280 nM | IC50 (PDE10A [2]): 55 nM

CCCNc1nc2ccc(OC)cc2cc1Cc1c(O)nc(CCC)c2cc(OC)c(OC)cc12 [Compound 52, 6,7-dimethoxy-4-((6-methoxy-2-(propylamino)quinolin-3-yl)methyl)-1-propylisoquinolin-3-ol dihydrochloride]
IC50 (PDE10A [2]): 1.5 nM

CCNc1nc2ccc(OC)cc2cc1Cc1c(O)nc(CNS(C)(=O)=O)c2cc(OC)c(OC)cc12 [Compound 58, N-((4-((2-(ethylamino)-6-methoxyquinolin-3-yl)methyl)-3-hydroxy-6,7-dimethoxyisoquinolin-1-yl)methyl)methanesulfonamide dihydrochloride]
IC50 (PDE10A [2]): 221 nM

CCCc1nc(O)c(Cc2cc3cc4c(cc3nc2NCC)OCO4)c2cc(OC)c(OC)cc12 [Compound 64, 4-((6-(ethylamino)-[1,3]dioxolo[4,5-g]quinolin-7-yl)methyl)-6,7-dimethoxy-1-propylisoquinolin-3-ol dihydrochloride]
IC50 (PDE10A [2]): 1.2 nM

CCc1nc(O)c(Cc2cc3cc(OC)ccc3nc2NCCOC)c2cc(OC)c(OC)cc12 [Compound 77, 1-Ethyl-6,7-dimethoxy-4-((6-methoxy-2-(2-methoxyethylamino)quinolin-3-yl)methyl)isoquinolin-3-ol dihydrochloride]
IC50 (PDE10A [2]): 2 nM

COc1cc2c(C(C)C)nc(O)c(Cc3cnc4ccccc4c3)c2cc1OC [Compound 79, 1-Isopropyl-6,7-dimethoxy-4-(quinolin-3-ylmethyl)isoquinolin-3-ol dihydrochloride]
IC50 (PDE10A [2]): 88 nM

CCCc1nc(O)c(Cc2ccc3nc(C)ccc3c2)c2cc(OC)c(OC)cc12 [Compound 80, 6,7-dimethoxy-4-((2-methylquinolin-6-yl)methyl)-1-propylisoquinolin-3-ol dihydrochloride]
IC50 (PDE10A [2]): 3.2 nM

CCCc1nc(O)c(Cc2cc3cc(OCC)c(F)cc3nc2NCC)c2cc(OC)c(OC)cc12 [Compound 86, 4-((6-Ethoxy-2-(ethylamino)-7-fluoroquinolin-3-yl)methyl)-6,7-dimethoxy-1-propylisoquinolin-3-ol dihydrochloride]
IC50 (PDE10A [2]): 0.3 nM

CCCc1nc(O)c(Cc2cc3cc(OCC)ccc3nc2NCCNC(C)=O)c2cc(OC)c(OC)cc12 [Compound 88, N-(2-((6-ethoxy-3-((3-hydroxy-6,7-dimethoxy-1-propylisoquinolin-4-yl)methyl)quinolin-2-yl)amino)ethyl)acetamide dihydrochloride]
IC50 (PDE10A [2]): 1.8 nM

— patent US8772316B2, “Substituted 6,7-dialkoxy-3-isoquinolinol derivatives as inhibitors of phosphodiesterase 10 (PDE10A)” (Allergan, Inc., priority 2011, dated 2014)
